Tested on: microtubule network of MCF-7 cells
Experiment: Immunofluorescence (confocal) of microtubule network
Assay type: cell-based, human
Settings: MCF-7, 16 h; 10n 0.05, 0.1, 0.5 μM; CA-4 10 nM; paclitaxel 1 μM
Procedure: Subsequently, the effect of the representative compound 10n on the organisation of microtubule cytoskeleton of MCF-7 cells was also determined by confocal microscopy using an anti-tubulin antibody (Figure 8). […] The MCF-7 cell nuclei (stained blue) were also clearly observed (Figure 8A). […] The treatment of MCF-7 breast cancer cells with CA-4 tubulin-targeting agents has been reported to result in the formation of multiple micronuclei and mitotic catastrophes.
Confocal microscopy was used to study the effects on MCF-7 cytoskeleton following treatment with compound 10n following the protocols previously reported. For each experiment, all images were collected on the same day using identical parameters. MCF-7 cells were seeded (1 × 10^5 cells/mL) on eight chamber glass slides. Cells were either untreated or treated with vehicle (1% ethanol (v/v)), CA-4 (10 nM), Paclitaxel (1 μM) and β-lactam compound 10n at 50 nM, 100 nM and 500 nM concentrations for 16 h. The cells were then gently washed in PBS and then fixed for 30 min with 100% ice-cold MeOH. Cells were washed three times in PBS for 10 min and then permeabilised in 0.5% Triton X-100. The cells were subsequently washed in PBS containing 0.1% Tween (PBST), and then blocked in bovine serum albumin (5%) diluted in PBST. Cells were then incubated with a mouse monoclonal anti-α-tubulin−FITC antibody (clone DM1A) (1:200) for 2 h at 20 °C. Following washes in PBST, cells were incubated with Alexa Fluor 488 dye (1:500) for 1 h at 20 °C. Following further washes in PBST, the cells were mounted in Ultra Cruz Mounting Media, which contained 4,6-diamino-2-phenolindol dihydrochloride (DAPI). The images were photographed using Leica SP8 confocal microscopy with the Leica application suite X software program. Experiments were performed on three independent occasions.
Figure 8 Compound 10n depolymerises the microtubule network of MCF-7 breast cancer cells. Cells were treated with (A) vehicle control ([…]), (B) CA-4 (10 nM), (C) paclitaxel (1 μM) and compound 10n, (D) (50 nM), (E) (100 nM) and (F) (500 nM) for 16 h. […]

## CC(=O)O[C@H]1C(=O)[C@@]2(C)[C@H]([C@H](OC(=O)c3ccccc3)[C@]3(O)C[C@H](OC(=O)[C@H](O)[C@@H](NC(=O)c4ccccc4)c4ccccc4)C(C)=C1C3(C)C)[C@]1(OC(C)=O)CO[C@@H]1C[C@@H]2O [paclitaxel]
  effect on microtubule network: hyper-polymerisation of tubulin
